Assays:
Test in all cases: Test D postemergence
Assay type in all cases: in vivo
Settings in all cases: scale 0 to 100
[1] = test system: Italian ryegrass (Lolium multiflorum)
Description: (§1) Seeds of plant species selected from bluegrass (annual bluegrass, Poa annua), blackgrass (Alopecurus myosuroides), canarygrass (Phalaris minor), chickweed (common chickweed, Stellaria media), cutleaf geranium (Geranium dissectum), galium (catchweed bedstraw, Galium aparine), downy bromegrass (Bromus tectorum), field poppy (Papaver rhoeas), field violet (Viola arvensis), green foxtail (Setaria viridis), deadnettle (henbit deadnettle, Lamium amplexicaule), Italian ryegrass (Lolium multiflorum), kochia (Kochia scoparia), lambsquarters (Chenopodium album), oilseed rape (Brassica napus), pigweed (Amaranthus retroflexus), chamomile (scentless chamomile, Matricaria inodora), Russian thistle (Salsola kali), speedwell (bird's-eye speedwell, Veronica persica), spring barley (Hordeum vulgare), spring wheat (Triticum aestivum), wild buckwheat (Polygonum convolvulus), wild mustard (Sinapis arvensis), wild oat (Avenafatua), wild radish (Raphanus raphanistrum), windgrass (Apera spica-venti), winter barley (Hordeum vulgare), and winter wheat (Triticum aestivum) were planted into a silt loam soil and treated preemergence with test chemicals formulated in a non-phytotoxic solvent mixture which included a surfactant.
(§2) At the same time, these species were planted in pots containing Redi-Earth® planting medium (Scotts Company, 14111 Scottslawn Road, Marysville, Ohio 43041) comprising spaghnum peat moss, vermiculite, wetting agent and starter nutrients and treated with postemergence applications of the test chemicals formulated in the same manner. Plants ranged in height from 2 to 18 cm (1- to 4-leaf stage). Treated plants and controls were maintained in a controlled growth environment for 14 to 21 days after which time all species were compared to controls and visually evaluated. Plant response ratings, summarized in Table D, are based on a scale of 0 to 100 where 0 is no effect and 100 is complete control. A dash (-) response means no test result.

[2] = test system: field poppy (Papaver rhoeas)
Description: as §1, §2

[3] = test system: downy bromegrass (Bromus tectorum)
Description: as §1, §2

[4] = test system: galium (catchweed bedstraw, Galium aparine)
Description: as §1, §2

[5] = test system: wild buckwheat (Polygonum convolvulus)
Description: as §1, §2

[6] = test system: winter barley (Hordeum vulgare)
Description: as §1, §2

[7] = test system: kochia (Kochia scoparia)
Description: as §1, §2

[8] = test system: green foxtail (Setaria viridis)
Description: as §1, §2

[9] = test system: canarygrass (Phalaris minor)
Description: as §1, §2

[10] = test system: oilseed rape (Brassica napus)
Description: as §1, §2

[11] = test system: chamomile (scentless chamomile, Matricaria inodora)
Description: as §1, §2

[12] = test system: bluegrass (annual bluegrass, Poa annua)
Description: as §1, §2

[13] = test system: blackgrass (Alopecurus myosuroides)
Description: as §1, §2

[14] = test system: wild mustard (Sinapis arvensis)
Description: as §1, §2

[15] = test system: speedwell (bird's-eye speedwell, Veronica persica)
Description: as §1, §2

[16] = test system: wild radish (Raphanus raphanistrum)
Description: as §1, §2

[17] = test system: lambsquarters (Chenopodium album)
Description: as §1, §2

[18] = test system: field violet (Viola arvensis)
Description: as §1, §2

[19] = test system: spring wheat (Triticum aestivum)
Description: as §1, §2

[20] = test system: pigweed (Amaranthus retroflexus)
Description: as §1, §2

SMILES: N#Cc1cccc(Oc2ncc(Cl)cn2)c1Oc1ncc(Cl)cn1 [Compound 3, 2,3-bis[(5-chloro-2-pyrimidinyl)oxy]benzonitrile]
- Plant response rating, Ryegrass, Italian ([1]; 16 g ai/ha): 0
- Plant response rating, Ryegrass, Italian ([1]; 31 g ai/ha): 10
- Plant response rating, Ryegrass, Italian ([1]; 62 g ai/ha): 10
- Plant response rating, Ryegrass, Italian ([1]; 125 g ai/ha): 15
- Plant response rating, Field Poppy ([2]; 16 g ai/ha): 35
- Plant response rating, Field Poppy ([2]; 31 g ai/ha): 40
- Plant response rating, Field Poppy ([2]; 62 g ai/ha): 55
- Plant response rating, Field Poppy ([2]; 125 g ai/ha): 70
- Plant response rating, Bromegrass, Downy ([3]; 16 g ai/ha): 10
- Plant response rating, Bromegrass, Downy ([3]; 31 g ai/ha): 20
- Plant response rating, Bromegrass, Downy ([3]; 62 g ai/ha): 25
- Plant response rating, Bromegrass, Downy ([3]; 125 g ai/ha): 25
- Plant response rating, Galium ([4]; 16 g ai/ha): 75
- Plant response rating, Galium ([4]; 31 g ai/ha): 95
- Plant response rating, Galium ([4]; 62 g ai/ha): 100
- Plant response rating, Galium ([4]; 125 g ai/ha): 100
- Plant response rating, Buckwheat, Wild ([5]; 16 g ai/ha): 85
- Plant response rating, Buckwheat, Wild ([5]; 31 g ai/ha): 90
- Plant response rating, Buckwheat, Wild ([5]; 62 g ai/ha): 95
- Plant response rating, Buckwheat, Wild ([5]; 125 g ai/ha): 100
- Plant response rating, Barley, Winter ([6]; 16 g ai/ha): 0
- Plant response rating, Barley, Winter ([6]; 31 g ai/ha): 5
- Plant response rating, Barley, Winter ([6]; 62 g ai/ha): 10
- Plant response rating, Barley, Winter ([6]; 125 g ai/ha): 15
- Plant response rating, Kochia ([7]; 16 g ai/ha): 85
- Plant response rating, Kochia ([7]; 31 g ai/ha): 100
- Plant response rating, Kochia ([7]; 62 g ai/ha): 100
- Plant response rating, Kochia ([7]; 125 g ai/ha): 100
- Plant response rating, Foxtail, Green ([8]; 16 g ai/ha): 10
- Plant response rating, Foxtail, Green ([8]; 31 g ai/ha): 15
- Plant response rating, Foxtail, Green ([8]; 62 g ai/ha): 20
- Plant response rating, Foxtail, Green ([8]; 125 g ai/ha): 40
- Plant response rating, Canarygrass ([9]; 16 g ai/ha): 5
- Plant response rating, Canarygrass ([9]; 31 g ai/ha): 10
- Plant response rating, Canarygrass ([9]; 62 g ai/ha): 15
- Plant response rating, Canarygrass ([9]; 125 g ai/ha): 20
- Plant response rating, Oilseed Rape ([10]; 16 g ai/ha): 40
- Plant response rating, Oilseed Rape ([10]; 31 g ai/ha): 55
- Plant response rating, Oilseed Rape ([10]; 62 g ai/ha): 60
- Plant response rating, Oilseed Rape ([10]; 125 g ai/ha): 90
- Plant response rating, Chamomile ([11]; 16 g ai/ha): 0
- Plant response rating, Chamomile ([11]; 31 g ai/ha): 0
- Plant response rating, Chamomile ([11]; 62 g ai/ha): 20
- Plant response rating, Chamomile ([11]; 125 g ai/ha): 35
- Plant response rating, Bluegrass ([12]; 16 g ai/ha): 15
- Plant response rating, Bluegrass ([12]; 31 g ai/ha): 20
- Plant response rating, Bluegrass ([12]; 62 g ai/ha): 25
- Plant response rating, Bluegrass ([12]; 125 g ai/ha): 30
- Plant response rating, Blackgrass ([13]; 16 g ai/ha): 5
- Plant response rating, Blackgrass ([13]; 31 g ai/ha): 10
- Plant response rating, Blackgrass ([13]; 62 g ai/ha): 15
- Plant response rating, Blackgrass ([13]; 125 g ai/ha): 20
- Plant response rating, Mustard, Wild ([14]; 16 g ai/ha): 45
- Plant response rating, Mustard, Wild ([14]; 31 g ai/ha): 60
- Plant response rating, Mustard, Wild ([14]; 62 g ai/ha): 65
- Plant response rating, Mustard, Wild ([14]; 125 g ai/ha): 85
- Plant response rating, Speedwell ([15]; 16 g ai/ha): 85
- Plant response rating, Speedwell ([15]; 31 g ai/ha): 85
- Plant response rating, Speedwell ([15]; 62 g ai/ha): 100
- Plant response rating, Speedwell ([15]; 125 g ai/ha): 100
- Plant response rating, Radish, Wild ([16]; 16 g ai/ha): 50
- Plant response rating, Radish, Wild ([16]; 31 g ai/ha): 60
- Plant response rating, Radish, Wild ([16]; 62 g ai/ha): 75
- Plant response rating, Radish, Wild ([16]; 125 g ai/ha): 85
- Plant response rating, Lambsquarters ([17]; 16 g ai/ha): 70
- Plant response rating, Lambsquarters ([17]; 31 g ai/ha): 80
- Plant response rating, Lambsquarters ([17]; 62 g ai/ha): 100
- Plant response rating, Lambsquarters ([17]; 125 g ai/ha): 100
- Plant response rating, Field Violet ([18]; 16 g ai/ha): 90
- Plant response rating, Field Violet ([18]; 31 g ai/ha): 100
- Plant response rating, Field Violet ([18]; 62 g ai/ha): 100
- Plant response rating, Field Violet ([18]; 125 g ai/ha): 100
- Plant response rating, Wheat, Spring ([19]; 16 g ai/ha): 0
- Plant response rating, Wheat, Spring ([19]; 31 g ai/ha): 0
- Plant response rating, Wheat, Spring ([19]; 62 g ai/ha): 5
- Plant response rating, Wheat, Spring ([19]; 125 g ai/ha): 15
- Plant response rating, Pigweed ([20]; 16 g ai/ha): 100
- Plant response rating, Pigweed ([20]; 31 g ai/ha): 100
- Plant response rating, Pigweed ([20]; 62 g ai/ha): 100
- Plant response rating, Pigweed ([20]; 125 g ai/ha): 100
